In the NIST ThermoML archive (doi:10.1021/acs.jced.5b01039):
Values joined by “and” are separate entries in the source; they are usually repeats but may differ in a detail not shown here. Equal values may be shown once. Numbers after ± are expanded uncertainties.

Conditions: Liquid; for vapor or sublimation pressure: Closed cell (Static) method; for mass density: Pycnometric method

SMILES	vapor or sublimation pressure (300 K)	mass density (300 K)	vapor or sublimation pressure (310 K)	mass density (310 K) [kg/m3]	vapor or sublimation pressure (320 K)	mass density (320 K)	vapor or sublimation pressure (330 K)	mass density (330 K)	vapor or sublimation pressure (340 K)	mass density (340 K)	vapor or sublimation pressure (350 K)	mass density (350 K)	vapor or sublimation pressure (360 K)	mass density (360 K)	vapor or sublimation pressure (370 K)	mass density (370 K)	vapor or sublimation pressure (380 K)	mass density (380 K)	further results
F/C=C\C(F)(F)F [(Z)-1,3,3,3-tetrafluoro-1-propene]	185.9 ± 0.8 kPa and 186.4 ± 0.8 kPa	1218.6 ± 1 kg/m3 and 1219.2 ± 1 kg/m3	260.4 ± 0.9 kPa and 260.6 ± 0.9 kPa	1191.2 ± 1	355.3 ± 1 kPa and 355.1 ± 1 kPa	1162 ± 1 kg/m3 and 1163.5 ± 1 kg/m3	473.3 ± 1.2 kPa and 473.5 ± 1.2 kPa	1132.5 ± 1 kg/m3 and 1131.5 ± 1 kg/m3	619 ± 1.4 kPa and 619.2 ± 1.4 kPa	1100.2 ± 1 kg/m3 and 1101.7 ± 1 kg/m3	795.2 ± 1.7 kPa and 794.7 ± 1.7 kPa	1066.1 ± 1 kg/m3 and 1067.3 ± 1 kg/m3	1007.3 ± 2 kPa	1032.6 ± 1 kg/m3 and 1032.3 ± 1 kg/m3	1258.9 ± 2.5 kPa and 1258.7 ± 2.5 kPa	993 ± 1 kg/m3 and 993.3 ± 1 kg/m3	1554.1 ± 3 kPa and 1556.9 ± 3 kPa	951.5 ± 1 kg/m3 and 949.7 ± 1 kg/m3	vapor or sublimation pressure (390 K): 1903.6 ± 3.6 kPa and 1903.7 ± 3.6 kPa; mass density (390 K): 900.5 ± 1.1 kg/m3 and 901.4 ± 1.1 kg/m3; vapor or sublimation pressure (400 K): 2308.3 ± 4.2 kPa and 2308.8 ± 4.2 kPa; mass density (400 K): 843.9 ± 1.1 kg/m3 and 843.6 ± 1.1 kg/m3
F/C=C/C(F)(F)F [trans-1,3,3,3-tetrafluoropropene]	526.8 ± 1.4 kPa and 526.6 ± 1.4 kPa	1157.7 ± 1 kg/m3 and 1158 ± 1 kg/m3	703.2 ± 1.6 kPa and 702.4 ± 1.6 kPa	1122.8 ± 1	919.6 ± 2 kPa and 919 ± 2 kPa	1085.1 ± 1 kg/m3	1182.6 ± 2.5 kPa and 1182.3 ± 2.5 kPa	1045.3 ± 1 kg/m3 and 1044.7 ± 1 kg/m3	1498.4 ± 3 kPa and 1498.6 ± 3 kPa	1000.9 ± 1 kg/m3 and 1001.5 ± 1 kg/m3	1874 ± 3.7 kPa and 1874.1 ± 3.7 kPa	950.3 ± 1.1 kg/m3 and 950.6 ± 1.1 kg/m3	2318 ± 4.5 kPa and 2319.2 ± 4.5 kPa	889.8 ± 1.1 kg/m3	2841.4 ± 5.5 kPa and 2842.7 ± 5.5 kPa	810.1 ± 1.3 kg/m3	3460 ± 6.4 kPa and 3461.5 ± 6.4 kPa	668.8 ± 1.5 kg/m3 and 670.4 ± 1.5 kg/m3	
